Assay results from patent US10807970B2 (priority 2016, dated 2020).

biological target: human σ1 receptor (Homo sapiens, UniProt Q99720); assay: Human σ1 receptor radioligand assay ([3H](+)-pentazocine, transfected HEK-293 membranes); format: binding; parameters: μ and σ1 dual binding: key to the marks not given beside the values; conditions: one class symbol for both Ki-σ1 (human σ1 receptor, A1) and Ki-μ (human μ-opioid receptor, A2)
Outline: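 Membranes from HEK-293 cells transfected with human σ1 receptor (7 μg) incubated with 5 nM [3H](+)-pentazocine in 50 mM Tris-HCl pH 8, 120 min at 37° C. Non-specific binding defined with 10 μM haloperidol. Bound radioligand separated by filtration, washed with ice-cold 10 mM Tris-HCl pH 7.4, and counted by scintillation.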

human σ1 receptor, sequence (Q99720 whole entry): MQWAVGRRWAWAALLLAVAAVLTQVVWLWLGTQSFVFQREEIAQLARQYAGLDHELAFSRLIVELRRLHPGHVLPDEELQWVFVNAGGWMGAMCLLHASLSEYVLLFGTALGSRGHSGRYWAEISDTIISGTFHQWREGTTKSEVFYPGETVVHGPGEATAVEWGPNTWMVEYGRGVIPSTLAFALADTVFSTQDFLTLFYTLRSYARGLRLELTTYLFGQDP

| SMILES | μ and σ1 dual binding |
| --- | --- |
| CC(C)OCCN1CCN([C@]2(C(=O)c3ccccn3)CCOC2)CC1 [Example 242, (R)-(3-(4-(2-isopropoxyethyl)piperazin-1-yl)tetrahydrofuran-3-yl)(pyridin-2-yl)methanone] | ++ |
| CC(C)OCCN1CCN([C@@]2(C(=O)c3ccccn3)CCOC2)CC1 [Example 243, (S)-(3-(4-(2-isopropoxyethyl)piperazin-1-yl)tetrahydrofuran-3-yl)(pyridin-2-yl)methanone] | ++ |
| CC(C)OCCN1CCC([C@]2(C(=O)c3ccccn3)CCOC(C)(C)C2)CC1 [Example 244, (S)-(4-(1-(2-isopropoxyethyl)piperidin-4-yl)-2,2-dimethyltetrahydro-2H-pyran-4-yl)(pyridin-2-yl)methanone] | ++ |
| CC(C)OCCN1CCC([C@@]2(C(=O)c3ccccn3)CCOC(C)(C)C2)CC1 [Example 245, (R)-(4-(1-(2-isopropoxyethyl)piperidin-4-yl)-2,2-dimethyltetrahydro-2H-pyran-4-yl)(pyridin-2-yl)methanone] | ++ |
| CC(C)CCN1CCN([C@@]2(C(=O)c3ccccn3)CCO[C@@H](C)C2)CC1 [Example 247, ((2S,4S)-4-(4-isopentylpiperazin-1-yl)-2-methyltetrahydro-2H-pyran-4-yl)(pyridin-2-yl)methanone] | ++ |
| CC(C)OCCN1CCC([C@]2(C(=O)c3ccccn3)CCO[C@H](C)C2)CC1 [Example 249, ((2R,4S)-4-(1-(2-isopropoxyethyl)piperidin-4-yl)-2-methyltetrahydro-2H-pyran-4-yl)(pyridin-2-yl)methanone] | ++ |

same assay, conditions: one class symbol for both Ki-σ1 (human σ1 receptor, A1) and Ki-μ (human μ-opioid receptor, A2); read-out: μ and σ1 dual binding

| SMILES | Ki |
| --- | --- |
| C[C@H]1C[C@@](C(=O)c2ccccn2)(N2CCN(CCc3ccccc3)CC2)CCO1 [Example 241, ((2S,4S)-2-methyl-4-(4-phenethylpiperazin-1-yl)tetrahydro-2H-pyran-4-yl)(pyridin-2-yl)methanone] | < 500 nM |
| CC(C)CCN1CCN([C@]2(C(=O)c3ccccn3)CCO[C@H](C)C2)CC1 [Example 246, ((2R,4R)-4-(4-isopentylpiperazin-1-yl)-2-methyltetrahydro-2H-pyran-4-yl)(pyridin-2-yl)methanone] | < 500 nM |
| CC[C@@]1(N2CCN(Cc3ccc(C#N)cc3)CC2)CCO[C@@H](C)C1 [Example 250, 4-((4-((2S,4R)-4-ethyl-2-methyltetrahydro-2H-pyran-4-yl)piperazin-1-yl)methyl)benzonitrile] | > 500 nM |
| CC[C@]1(N2CCN(Cc3ccc(C#N)cc3)CC2)CCO[C@H](C)C1 [Example 251, 4-((4-((2R,4S)-4-ethyl-2-methyltetrahydro-2H-pyran-4-yl)piperazin-1-yl)methyl)benzonitrile] | > 500 nM |

same assay, conditions: μ and σ1 dual binding, one class symbol for both Ki-σ1 (human σ1 receptor, A1) and Ki-μ (human μ-opioid receptor, A2)

| SMILES | Ki |
| --- | --- |
| CC(C)OCCN1CCC([C@@]2(C(=O)c3ccccn3)CCO[C@@H](C)C2)CC1 [Example 248, ((2S,4R)-4-(1-(2-isopropoxyethyl)piperidin-4-yl)-2-methyltetrahydro-2H-pyran-4-yl)(pyridin-2-yl)methanone] | < 500 nM |
